# Reference: patent publication US7183269B2, “Synergistic compositions for the selective control of tumor tissue” (priority 1997, dated 2007)
# What was measured:
# [1] = test system: RT112; experiment: Cell Death Detection ELISA (apoptosis kit) with RT112 as a function of pH; type: cell-based, human
# Experimental: The measurements were carried out using a “Cell Death Detection ELISA” kit, Cat. No. 1774 425 commercially available from Boehringer (Mannheim). The process instructions are additionally supplied by Boehringer.
# The OD value corresponds to the cell death.
# The results of the experiments are summarized in FIGS. 1 to 3, which correspond to Tables 1 to 3. In the figures, the cell death is recorded in a ELISA (apoptosis kit) with RT112 as a function of the pH. That is to say the data on the Y axis of the figures is a measure of the cell death; the pH of the cells is indicated on the X axis. FIG. 1 and FIG. 2 show experiments in which individual compounds were employed. […] It stands out that at a pH of between 6.5 and 7.0 the compositions according to the invention cause a cell death which is preferably in the vicinity of or above the CAM value, which virtually corresponds to a complete destruction of the tumor tissue.
# The apoptosis-inducing substance CAM used in the experiments is camptothecin (CAM value). In the experiments, positive control means that instead of the apoptotic cancer cells induced by the substances a histone-DNA complex with known detection sensitivity is employed for detection, i.e. an artificial apoptosis product is provided. In the experiments, negative control means that the same detection procedure is carried out, but without addition of substances or substance mixtures.
# (§1) The human bladder tumor cell line. RT112 or the human chronic myeloid leukemia cell line K562 were purchased from DKFZ Tumorzell—und datenbank (Institut für experimentelle Pathologie, Heidelberg, FRG) or DSM (Deutsche Sammlung von Mikroorganismen und Zellkulturen GmbH, Braunschweig, FRG), respectively. The cells were cultured in HEPES-buffered RPMI 1640 (SIGMA, Deisenhofen, FRG) supplemented with 2 mM L-glutamine (BIOCHROM, Berlin, FRG), 1% NEAE (BIOCHROM), 10% heat-inactivated fetal calf serum (BIOCHROM), 100 U/ml penicillin and 50 μg/ml streptomycin (BIOCHROM) at 37° C. and 5% CO2. Only mycoplasma-free cell cultures were used; this was frequently tested using a specific detection kit (BOEHRINGER MANNHEIM, Mannheim, FRG).
# [2] = test system: RT112 tumor cells (bladder carcinoma); experiment: [3H]-TdR incorporation assay (proliferation); type: cell-based, human; details: in dependence of extracellular pH, FIG. 4
# Source text: The anticancer activity of salicylate combinations can also be examined by in vitro experiments with tumor cell lines. As a relevant criterion of toxic effects on cancer cells the proliferation rate can be considered. The proliferation rate effected by salicylate combinatioins can be measured in dependence of the extracellular pH-milieu. (Details for cell cultures, see Materials & Methods below.)
# The effect of salicylate combinations on the proliferation of RT112 tumor cells is quantitated by the measurement of incorporated tritiated thymidine ([^3H]-TdR) into the cellular DNA of the cancer cells by liquid scintillation counting (LSC). (Method details, see Material & Methods below.)
# as §1
# The influence of cytotoxic molecules on the proliferation of RT112 tumor cells was quantitated by the measurement of the incorporated tritiated thymidine ([^3H]-TdR) into the cellular DNA of the tumor cells by liquid scintillation counting (LSC). In brief, RT112 cells were harvested, washed twice and resuspended in culture media (2.5×10^5/ml). 100 μl/well of the RT112 cell suspension were seeded into 96 well microtiter plates (BECTON DICKINSON) and incubated over night at 37° C. and 5% CO2. The supernatant was replaced by 90 μl pH-adjusted culture medium (pH 6.0–7.4) and 10 μl of the solution of preferred substances or 100 μl/well pH-adjusted culture medium alone (control). The cells were incubated for various time periods at 37° C. and 5% CO2. Thereafter, cells were washed twice, reincubated in fresh pH-adjusted culture medium and pulsed for 24 h by the addition of 23.125 kBq [^3H]TdR/well (925 kBq/ml; AMERSHAM, Braunschweig, FRG). After freezing and thawing, radioactive DNA of the cultures were transferred to glass fiber filters with an automatic cell harvester (PHARMACIA). The incorporated radioactivity was measured in a liquid scintillation counter (PHARMACIA).
# [3] = Table 2, measurement after 35 minutes, 15 mM, initial pH 6.0
# [4] = Table 2, measurement after 35 minutes, 15 mM, initial pH 6.5
# [5] = Table 2, measurement after 35 minutes, 15 mM, initial pH 7.0
# [6] = Table 2, measurement after 35 minutes, 15 mM, initial pH 7.4
# [7] = Table 2, measurement after 35 minutes, 10 mM, initial pH 6.0
# [8] = Table 2, measurement after 35 minutes, 10 mM, initial pH 6.5
# [9] = Table 2, measurement after 35 minutes, 10 mM, initial pH 7.0
# [10] = Table 2, measurement after 35 minutes, 10 mM, initial pH 7.4
smiles,measurement,setting,value
"CC[C@@]1(O)C(=O)OCc2c1cc1n(c2=O)Cc2cc3ccccc3nc2-1 [CAM, camptothecin]",OD (405–490 nm),"[1]; Table 1, measurement after 35 minutes, 800 ng/ml, initial pH 6.0",0.818
same,OD (405–490 nm),"[1]; Table 1, measurement after 35 minutes, 800 ng/ml, initial pH 6.5",3.037
same,OD (405–490 nm),"[1]; Table 1, measurement after 35 minutes, 800 ng/ml, initial pH 7.0",2.725
same,OD (405–490 nm),"[1]; Table 1, measurement after 35 minutes, 800 ng/ml, initial pH 7.4",2.416
same,OD (405–490 nm),"[1]; Table 2, measurement after 35 minutes, 160 ng/ml, initial pH 6.0",0.344
same,OD (405–490 nm),"[1]; Table 2, measurement after 35 minutes, 160 ng/ml, initial pH 6.5",0.711
same,OD (405–490 nm),"[1]; Table 2, measurement after 35 minutes, 160 ng/ml, initial pH 7.0",1.220
same,OD (405–490 nm),"[1]; Table 2, measurement after 35 minutes, 160 ng/ml, initial pH 7.4",1.923
same,OD (405–490 nm),"[1]; Table 3, measurement after 20 minutes, 800 ng/ml, initial pH 6.0",1.681
same,OD (405–490 nm),"[1]; Table 3, measurement after 20 minutes, 800 ng/ml, initial pH 6.5",1.708
same,OD (405–490 nm),"[1]; Table 3, measurement after 20 minutes, 800 ng/ml, initial pH 7.0",1.791
same,OD (405–490 nm),"[1]; Table 3, measurement after 20 minutes, 800 ng/ml, initial pH 7.4",2.217
"O=C(O)c1c(O)cc(O)cc1O [DHSA, 2,4,6-trihydroxybenzoic acid]",effect on the proliferation rate,[2],no effect or minor effect
"O=C(O)c1cc(-c2ccc(F)cc2F)ccc1O [Diflu, 5-(2,4-difluoro-phenyl)salicylic acid]",effect on the proliferation rate,[2],no effect or minor effect
"Nc1ccc(C(=O)O)c(O)c1 [Substance 58a, 2-hydroxy-4-aminobenzoic acid]",OD (405–490 nm),[1]; [3],0.320
same,OD (405–490 nm),[1]; [4],0.282
same,OD (405–490 nm),[1]; [5],0.574
same,OD (405–490 nm),[1]; [6],1.835
same,effect on the proliferation rate,[2],no effect or minor effect
"CC(=O)Oc1ccccc1C(=O)O [Substance 121, acetylsalicylic acid (2-acetoxybenzoic acid)]",OD (405–490 nm),[1]; [7],1.282
same,OD (405–490 nm),[1]; [8],0.163
same,OD (405–490 nm),[1]; [9],0.413
same,OD (405–490 nm),[1]; [10],1.508
same,effect on the proliferation rate,[2],no effect or minor effect
"CC(=O)Oc1ccc(C(=O)O)c(OC(C)=O)c1 [Substance 132, 2,4-diacetoxybenzoic acid]",OD (405–490 nm),[1]; [7],2.856
same,OD (405–490 nm),[1]; [8],0.183
same,OD (405–490 nm),[1]; [9],0.088
same,OD (405–490 nm),[1]; [10],0.502
same,OD (405–490 nm),"[1]; Table 3, measurement after 20 minutes, 5 mM, initial pH 6.0",0.407
same,OD (405–490 nm),"[1]; Table 3, measurement after 20 minutes, 5 mM, initial pH 6.5",0.371
same,OD (405–490 nm),"[1]; Table 3, measurement after 20 minutes, 5 mM, initial pH 7.0",0.422
same,OD (405–490 nm),"[1]; Table 3, measurement after 20 minutes, 5 mM, initial pH 7.4",0.916
"O=C(O)c1c(O)cccc1O [Substance 136, 2,6-dihydroxybenzoic acid]",OD (405–490 nm),"[1]; Table 1, measurement after 35 minutes, 5 mM, initial pH 6.0",0.187
same,OD (405–490 nm),"[1]; Table 1, measurement after 35 minutes, 5 mM, initial pH 6.5",0.918
same,OD (405–490 nm),"[1]; Table 1, measurement after 35 minutes, 5 mM, initial pH 7.0",0.321
same,OD (405–490 nm),"[1]; Table 1, measurement after 35 minutes, 5 mM, initial pH 7.4",0.382
same,OD (405–490 nm),"[1]; Table 1, measurement after 35 minutes, 7 mM, initial pH 6.0",0.221
same,OD (405–490 nm),"[1]; Table 1, measurement after 35 minutes, 7 mM, initial pH 6.5",1.287
same,OD (405–490 nm),"[1]; Table 1, measurement after 35 minutes, 7 mM, initial pH 7.0",0.524
same,OD (405–490 nm),"[1]; Table 1, measurement after 35 minutes, 7 mM, initial pH 7.4",0.816
same,effect on the proliferation rate,[2],no effect or minor effect
"COc1ccc(C(=O)O)c(OC)c1 [Substance 188, 2,4-dimethoxybenzoic acid]",OD (405–490 nm),[1]; [3],0.256
same,OD (405–490 nm),[1]; [4],0.309
same,OD (405–490 nm),[1]; [5],0.502
same,OD (405–490 nm),[1]; [6],1.854
